For 13 compounds, IC50 and Activity results are on record in ChEMBL document CHEMBL6115007, “Synthesis and in vitro and in vivo evaluation of novel bivalent quinolines as antitumor agents via targeting autophagy in cervical cancer” (Eur J Med Chem, 2025).

SMILES strings stand for the structures. Calls of active or inactive are those of the source. No cut-off for these calls is given here.

Format in all cases: functional, cell-based
In one test the test system is A549. Description: Antiproliferative activity against human A549 cells assessed as reduction in cell optical density incubated for 48 hrs by MTT assay. Particulars: A549, 48 h. A general note: Tetrazolium assays rely on reduction of a dye to a coloured formazan, in cell work by metabolically active cells.
Another test concerns HepG2. In words: Antiproliferative activity against human HepG2 cells assessed as reduction in cell optical density incubated for 48 hrs by MTT assay. Particulars: HepG2, 48 h.
In a further test the test system is BGC-823. In words: Antiproliferative activity against human BGC-823 cells assessed as reduction in cell optical density incubated for 48 hrs by MTT assay. Particulars: BGC-823, 48 h.
In test [1] the test system is HeLa. In words: Antiproliferative activity against human HeLa cells assessed as reduction in cell optical density incubated for 48 hrs by MTT assay.
The test system of the next test is HCT-116. Description: Antiproliferative activity against human HCT-116 cells assessed as reduction in cell optical density incubated for 48 hrs by MTT assay. Particulars: HCT-116, 48 h.
Another test deals with MCF7. Description: Antiproliferative activity against human MCF7 cells assessed as reduction in cell optical density incubated for 48 hrs by MTT assay. Particulars: MCF7, 48 h.
Test [2] concerns HeLa. In words: Induction of ferroptosis in human HeLa cells assessed as increase in lipid ROS level by measuring rightward shift in fluorescence intensity at 8 uM measured after 12 hrs by C11-BODIPY-581/591 staining based flow cytometric analysis. (A flow cytometer gives signals particle by particle.)
In a further test the test system is Ca-Ski. Description: Induction of ferroptosis in human Ca Ski cells assessed as increase in lipid ROS level by measuring rightward shift in fluorescence intensity at 6 uM measured after 12 hrs by C11-BODIPY-581/591 staining based flow cytometric analysis.
The test system of test [3] is HeLa. Description: Induction of autophagy in human HeLa cells transfected with mRFP-GFP-LC3 plasmid assessed as stable RFP fluorescence at 30 uM incubated for 24 hrs by DAPI staining based fluorescence confocal microscopic analysis.

A word on the IC50: it is the concentration needed to halve the response being measured. On to `Fc1cccc(Nc2ccnc3cc(OCCCCCOc4ccc5c(Nc6cccc(F)c6)ccnc5c4)ccc23)c1`, for which the 50% inhibitory concentration (IC50) in the test with A549 turned out to be 2.55 µM; in the test with HepG2, 45.4 µM; in the test on BGC-823, 2.44 µM; with HeLa [1], 4.34 µM; in the test with HCT-116, 3.28 µM; in the test on MCF7 it was 4.98 µM.

Regarding `Fc1cccc(Nc2ccnc3cc(OCCCCOc4ccc5c(Nc6cccc(F)c6)ccnc5c4)ccc23)c1`, the half-maximal inhibitory concentration (IC50) in the test with A549 came out at 13.3 µM; with HepG2 it was 10.5 µM; in the test with BGC-823 it was 18.7 µM; in the test with HeLa [1], 37.3 µM; in the test with HCT-116, 17.1 µM; in the test with MCF7, 6.79 µM.

For `COc1cccc(Nc2ccnc3cc(OCCCCCCOc4ccc5c(Nc6cccc(OC)c6)ccnc5c4)ccc23)c1`, the IC50 in the test with A549 amounted to 6.15 µM; in the test on HepG2 it was 31.9 µM; in the test on BGC-823 it was 3.58 µM; in the test with HeLa [1] it was 4.07 µM; in the test with HCT-116 it was 6.99 µM; with MCF7, 5.55 µM.

On to `COC(=O)c1ccc([C@H]2c3[nH]c4ccccc4c3C[C@H](C(=O)OC)N2C(=O)CCl)cc1`, for which the result with HeLa [2] and in the test on Ca-Ski was Active.

Take `FC(F)(F)Oc1cccc(Nc2ccnc3cc(OCCCCCCOc4ccc5c(Nc6cccc(OC(F)(F)F)c6)ccnc5c4)ccc23)c1`: the 50% inhibitory concentration (IC50) is 0.31 µM in the test with A549; 44.8 µM in the test with HepG2; 89.4 µM in the test on BGC-823; 28.3 µM in the test on HeLa [1]; 10.3 µM in the test on HCT-116; greater than 200 µM in the test with MCF7.

With `CN1CCN(c2ccnc3cc(OCCCCCCOc4ccc5c(N6CCN(C)CC6)ccnc5c4)ccc23)CC1`, the concentration for half-maximal inhibition (IC50) in the test on A549 is 0.33 µM; in the test on HepG2 it was 43.3 µM; with BGC-823 it was 50.2 µM; in the test on HeLa [1] it was 26.1 µM; with HCT-116, 42.3 µM; in the test with MCF7, 44.3 µM.

`CN1CCN(c2ccnc3cc(OCCCCCOc4ccc5c(N6CCN(C)CC6)ccnc5c4)ccc23)CC1`: the IC50 in the test on A549 amounted to 26 µM; in the test with HepG2 it was 35.1 µM; in the test on BGC-823, 3.55 µM; in the test with HeLa [1] it was 30.9 µM; with HCT-116, 3.85 µM; with MCF7, 6.03 µM.

`FC(F)(F)Oc1cccc(Nc2ccnc3cc(OCCCCCOc4ccc5c(Nc6cccc(OC(F)(F)F)c6)ccnc5c4)ccc23)c1`: the 50% inhibitory concentration (IC50) in the test on A549 came out at 0.78 µM; in the test on HepG2, 24.8 µM; in the test with BGC-823, 3.35 µM; in the test on HeLa [1], 14.3 µM; in the test on HCT-116, 17.2 µM; in the test with MCF7, 38 µM.

As to `CO[C@H]1C[C@@H]2CC[C@@H](C)[C@@](O)(O2)C(=O)C(=O)N2CCCC[C@H]2C(=O)O[C@H]([C@H](C)C[C@@H]2CC[C@@H](O)[C@H](OC)C2)CC(=O)[C@H](C)/C=C(\C)[C@@H](O)[C@@H](OC)C(=O)[C@H](C)C[C@H](C)/C=C/C=C/C=C/1C`, the outcome in the test with HeLa [3] was Active.

For `Fc1cccc(Nc2ccnc3cc(OCCCCCCOc4ccc5c(Nc6cccc(F)c6)ccnc5c4)ccc23)c1`, the half-inhibitory concentration (IC50) in the test on A549 is 0.75 µM; in the test on HepG2 it was 0.36 µM; in the test on BGC-823, 9.82 µM; in the test with HeLa [1], 0.94 µM; with HCT-116, 6.64 µM; with MCF7, greater than 200 µM.

In the case of `FC(F)(F)Oc1cccc(Nc2ccnc3cc(OCCCCOc4ccc5c(Nc6cccc(OC(F)(F)F)c6)ccnc5c4)ccc23)c1`, the concentration for half-maximal inhibition (IC50) is 2.75 µM in the test on A549; 2.75 µM in the test with HepG2; 66 µM in the test on BGC-823; 14.1 µM in the test on HeLa [1]; 13.5 µM with HCT-116; greater than 200 µM with MCF7.

With `CN1CCN(c2ccnc3cc(OCCCCOc4ccc5c(N6CCN(C)CC6)ccnc5c4)ccc23)CC1`, the IC50 is 139 µM in the test on A549; greater than 200 µM with HepG2; 136 µM with BGC-823; 146 µM in the test on HeLa [1]; greater than 200 µM in the test on HCT-116; greater than 200 µM in the test with MCF7.

Take `COc1cccc(Nc2ccnc3cc(OCCCCOc4ccc5c(Nc6cccc(OC)c6)ccnc5c4)ccc23)c1`: the IC50 in the test on A549 is 142 µM; in the test on HepG2, greater than 200 µM; with BGC-823, 63.8 µM; in the test with HeLa [1] it was 48.3 µM; with HCT-116, greater than 200 µM; with MCF7 it was 47.2 µM.
